The text below walks through data of patent publication US4835153A, “Malonic acid derivatives” (Nihon Nohyaku Co., Ltd., priority 1986, dated 1989).

The test system of data set [1] is hepatic disorder caused by carbon tetrachloride (liver injury, plasma glutamic pyruvic transaminase). The data set can be described thus: Effect of suppressing hepatic disorder caused by carbon tetrachloride. It is filed as in vivo, mice (dd-strain, male). The settings on record: 30 mg/kg oral, 6 h before CCl4 0.05 ml/kg oral, 24 h after CCl4, mean of five mice; for Liver injury index: 0 healthy, 2 slightly affected, 4 evident injury, 6 serious injury; for p-GPT (plasma glutamic pyruvic transaminase activity): Reitman-Frankel, Karmen Units, >=2,100 calculated as 2,100. Also noted: key to Liver injury index: liver injury index 0 = healthy, 2 slight, 4 evident, 6 serious injury. How it is done:
Test Example 1 Effect of suppressing hepatic disorder caused by carbon tetrachloride. Test Method […] Six hours thereafter, carbon tetrachloride was orally administered in a proportion of 0.05 ml/kg. The animals were sacrificed 24 hours after the administration of carbon tetrachloride, and the extent of liver injury was grossly examined. On the other hand, blood was collected from the animal at the time of the sacrifice, and centrifuged to obtain plasma. The plasma glutamic pyruvic transminase (GPT) activity was determined according to the method of Reitman-Frankel. The activity was expressed in terms of Karmen Units (K.U.). The conditions of the liver were expressed in terms of liver injury index as follows. […] When the GPT activity was 2,100 units or higher, […], and the activity was calculated as 2,100 units for reasons of convenience.

The nature of data set [2]: acute oral toxicity to male rat (LD50). Conditions: in vivo. How it is done: For example, LD50 value (acute oral toxicity to male rat) of the compound No. 20 is more than 1,000 mg/kg.

As a reminder, the LD50 is the dose expected to kill half of the subjects tested.

For `CCOC(=O)C(C(=O)OCC)=C1SC2NCCNC2S1` (stereo not drawn) [Compound 1], in data set [1], the Liver injury index turned out to be 2.0 and the “p-GPT (plasma glutamic pyruvic transaminase activity)” value (shortened to “p-GPT”) is 225 K.U. As to `CC(C)OC(=O)C(C(=O)OC(C)C)=C1SC2NCCNC2S1` (stereo not drawn) [Compound 2, Diisopropyl(2,5-diaza-7,9-dithiabicyclo-[4,3,0]-nonane-8-ylidene)malonate], in data set [1], the Liver injury index was 0.3 and the “p-GPT” value is listed as 24.4 K.U.

For the compound `CCCOC(=O)C(C(=O)OCCC)=C1SC2NCCNC2S1` (stereo not drawn) [Compound 3], in data set [1], the Liver injury index was found to be 0.1 and the “p-GPT” value is listed as 53.0 K.U. On to `CCCOC(=O)C(C(=O)OCCC)=C1SC2C(S1)N(C(C)=O)CCN2CC` (stereo not drawn) [Compound 10], for which, in data set [1], the Liver injury index is 4.5 and the “p-GPT” value was 2,000 K.U. Take `CC(C)OC(=O)C(C(=O)OC(C)C)=C1SC2C(S1)N(C)CCN2C` (stereo not drawn) [Compound 16, Diisopropyl(2,5-dimethyl-2,5-diaza-7,9-dithiabicyclo-[4,3,0]-nonane-8-ylidene)malonate]: in data set [1], the Liver injury index was determined as 0.6 and the “p-GPT” value is listed as 32 K.U. Take `COC(=O)C(C(=O)OC)=C1SC2C(S1)N(C)CCN2C` (stereo not drawn) [Compound 18]: in data set [1], the Liver injury index was determined as 1.8 and the “p-GPT” value is 166 K.U. `CCOC(=O)C(C(=O)OCC)=C1SC2C(S1)N(C)CCN2C` (stereo not drawn) [Compound 19]: in data set [1], the Liver injury index stood at 1.6 and the “p-GPT” value is listed as 99 K.U. In the case of `CCCOC(=O)C(C(=O)OCCC)=C1SC2C(S1)N(C)CCN2C` (stereo not drawn) [Compound 20], the LD50 in data set [2] was > 1000 mg/kg.

Turning to `CCCCOC(=O)C(C(=O)OCCCC)=C1SC2C(S1)N(C)CCN2C` (stereo not drawn) [Compound 23], in data set [1], the Liver injury index was 1.2 and the “p-GPT” value is recorded as 10.2 K.U. The corresponding values for `CCN1CCN(CC)C2SC(=C(C(=O)OC)C(=O)OC)SC21` (stereo not drawn) [Compound 25] are 0.4 and 13.2 K.U. With `CC(C)OC(=O)C(C(=O)OC(C)C)=C1SC2N(C)CCN(C)C2(C)S1` (stereo not drawn) [Compound 28], in data set [1], the Liver injury index is given as 1.5 and the “p-GPT” value is given as 547 K.U. For `CCCCOC(=O)C(C(=O)OCCCC)=C1SC2C(S1)N(CC)CCN2CC` (stereo not drawn) [Compound 30], in data set [1], the Liver injury index is listed as 0.8 and the “p-GPT” value was 22.8 K.U. On to `CCN1CCN(CC)C2(C)SC(=C(C(=O)OC(C)C)C(=O)OC(C)C)SC12` (stereo not drawn) [Compound 33], for which, in data set [1], the Liver injury index is reported as 1.2 and the “p-GPT” value was 925 K.U.

Turning to `CCCOC(=O)C(C(=O)OCCC)=C1SC2C(S1)N(CC)CCN2CC` (stereo not drawn) [Compound 37], in data set [1], the Liver injury index worked out at 1.4 and the “p-GPT” value is 143 K.U. For `CCN1CCN(CC)C2SC(=C(C(=O)OC(C)(C)C)C(=O)OC(C)(C)C)SC21` (stereo not drawn) [Compound 40], in data set [1], the Liver injury index is given as 1.8 and the “p-GPT” value is 164 K.U. `C=CCN1CCN(CC=C)C2SC(=C(C(=O)OCCC)C(=O)OCCC)SC21` (stereo not drawn) [Compound 43]: in data set [1], the Liver injury index is listed as 0.2 and the “p-GPT” value was 51 K.U. The like results for `C=CCOC(=O)C(C(=O)OCC=C)=C1SC2C(S1)N(CC=C)CCN2CC=C` (stereo not drawn) [Compound 49] were, in that order, 1.2 and 23.8 K.U. Regarding `COCC(C)OC(=O)C(C(=O)OC(C)COC)=C1SC2C(S1)N(C)CCN2C` (stereo not drawn) [Compound 51], in data set [1], the Liver injury index worked out at 0.4 and the “p-GPT” value was 18.2 K.U. In the case of `CCOC(=O)C(C(=O)OC)=C1SC2C(S1)N(C)CCN2C` (stereo not drawn) [Compound 54], in data set [1], the Liver injury index was 0 and the “p-GPT” value is reported as 13.4 K.U. As to `CCOC(=O)C(C(=O)OC(C)C)=C1SC2C(S1)N(C)CCN2C` (stereo not drawn) [Compound 56], in data set [1], the Liver injury index is 0 and the “p-GPT” value is given as 16.8 K.U.

For `CCCCOC(=O)C(C(=O)OCC)=C1SC2C(S1)N(C)CCN2C` (stereo not drawn) [Compound 59], in data set [1], the Liver injury index worked out at 0.5 and the “p-GPT” value is 109.2 K.U. Take `CCC(COC)OC(=O)C(C(=O)OC(CC)COC)=C1SC2C(S1)N(C)CCN2C` (stereo not drawn) [Compound 63]: in data set [1], the Liver injury index is listed as 0.5 and the “p-GPT” value was 32.8 K.U. `CCOC(=O)C(C(=O)OCC(C)C)=C1SC2C(S1)N(CC)CCN2CC` (stereo not drawn) [Compound 67]: in data set [1], the Liver injury index was 2.5 and the “p-GPT” value is 1,620 K.U. For the compound `CCCCOC(=O)C(C(=O)OC(C)C)=C1SC2C(S1)N(CC)CCN2CC` (stereo not drawn) [Compound 68], in data set [1], the Liver injury index came out at 1.5 and the “p-GPT” value is 914.6 K.U. For the compound `CCOC(=O)C(C(=O)OC(C)(C)C)=C1SC2C(S1)N(CC)CCN2CC` (stereo not drawn) [Compound 72], in data set [1], the Liver injury index came to 0.4 and the “p-GPT” value is reported as 428.6 K.U. For `Cc1ccc(COC(=O)C(C(=O)OC(C)C)=C2SC3C(S2)N(C)CCN3C)cc1` (stereo not drawn) [Compound 74], in data set [1], the Liver injury index was 0.6 and the “p-GPT” value is 25 K.U. As for `COc1ccc(COC(=O)C(C(=O)OC(C)C)=C2SC3C(S2)N(C)CCN3C)cc1` (stereo not drawn) [Compound 75, Isopropyl 4-methoxybenzyl(2,5-dimethyl-2,5-diaza-7,9-dithiabicycl-[4,3,0]-nonane-8-ylidene)malonate], in data set [1], the Liver injury index was 0 and the “p-GPT” value is 20 K.U. The corresponding values for `CC(C)OC(=O)C(C(=O)OC(C)c1ccc(Cl)cc1Cl)=C1SC2C(S1)N(C)CCN2C` (stereo not drawn) [Compound 79] are 1.4 and 1,060 K.U.

For `Cc1ccc(C(C)OC(=O)C(C(=O)OC(C)C)=C2SC3C(S2)N(C)CCN3C)cc1` (stereo not drawn) [Compound 81], in data set [1], the Liver injury index came to 1.2 and the “p-GPT” value is 120 K.U. Take `CCOC(=O)C(C(=O)OC(C)c1ccc(Cl)cc1)=C1SC2C(S1)N(C)CCN2C` (stereo not drawn) [Compound 83]: in data set [1], the Liver injury index is given as 0.8 and the “p-GPT” value is given as 38.6 K.U. For the compound `CCOC(=O)C(C(=O)OC(C)c1ccccc1)=C1SC2C(S1)N(C)CCN2C` (stereo not drawn) [Compound 84], in data set [1], the Liver injury index came to 0.8 and the “p-GPT” value is on record as 37 K.U. The corresponding values for `CCC(C)OC(=O)C(C(=O)OC(C)CC)=C1SC2NCCNC2S1` (stereo not drawn) [Compound 87] are 0.2 and 21 K.U.

On to `CC(C)OC(=O)C(C(=O)OC(C)C)=C1SC2C(S1)N(C)CCN2C` (stereo not drawn) [Compound 94], for which, in data set [1], the Liver injury index amounted to 2.0 and the “p-GPT” value is 1,534 K.U. In the case of `CCCOC(=O)C(C(=O)OCCC)=C1SC2NCCNC2(C)S1.Cl` (stereo not drawn) [Compound 96, Di-n-propyl(6-methyl-2,5-diaza-7,9-dithiabicyclo-[4,3,0]-nonane-8-ylidene)malonate hydrochloride salt], in data set [1], the Liver injury index turned out to be 0.1 and the “p-GPT” value is 28.0 K.U. Turning to `CC(C)OC(=O)C(C(=O)OC(C)C)=C1SC2NCCNC2(C)S1` (stereo not drawn) [Compound 97], in data set [1], the Liver injury index was 0.2 and the “p-GPT” value is on record as 45.0 K.U.
